Source: ChEMBL document CHEMBL1143129

Experiments:
[1] = target: Carbonic anhydrase 3 (Homo sapiens) (UniProt P07451)
Description: Inhibition of human recombinant full length carbonic hydrase 3 by stopped-flow CO2 hydration assay

[2] = target: Carbonic anhydrase 13 (Mus musculus) (UniProt Q9D6N1); assay: Inhibition of mouse recombinant full length carbonic hydrase 13 by stopped-flow CO2 hydration assay
Carbonic anhydrase 13 (Mus musculus), sequence (Q9D6N1 whole entry, looked up): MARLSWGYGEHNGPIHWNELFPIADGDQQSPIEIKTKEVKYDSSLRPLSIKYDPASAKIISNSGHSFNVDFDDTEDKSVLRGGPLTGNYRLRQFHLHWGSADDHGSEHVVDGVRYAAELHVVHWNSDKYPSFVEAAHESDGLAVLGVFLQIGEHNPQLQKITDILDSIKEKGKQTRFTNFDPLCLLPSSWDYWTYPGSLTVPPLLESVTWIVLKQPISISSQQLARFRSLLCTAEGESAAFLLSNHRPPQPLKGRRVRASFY

Carbonic anhydrase 3 (Homo sapiens), sequence (P07451 whole entry): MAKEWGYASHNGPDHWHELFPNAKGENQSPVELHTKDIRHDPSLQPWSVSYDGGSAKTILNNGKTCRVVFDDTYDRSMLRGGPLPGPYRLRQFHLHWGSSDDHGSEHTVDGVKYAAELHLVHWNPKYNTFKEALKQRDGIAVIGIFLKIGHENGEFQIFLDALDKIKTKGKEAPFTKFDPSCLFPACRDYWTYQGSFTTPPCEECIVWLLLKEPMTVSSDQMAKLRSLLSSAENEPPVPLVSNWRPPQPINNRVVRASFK

SMILES	Kinact [1]	Ki [2]
CC(=O)/N=c1/sc(S(N)(=O)=O)nn1C	7 10^5nM	
CN(C)c1nnc(CS(N)(=O)=O)s1	3.6 10^5nM	20 nM
